In patent publication US5147876A, “2,6-di,2,4,6-, 2,5,6-tri and 2,4,5,6-tetra-substituted pyrimidines, their pharmaceutically acceptable salts, pharmaceutical compositions containing same and their use in the treatment of neurological diseases” (Mitsui Petrochemical Industries, Ltd., priority 1988, dated 1992):
Where “and” joins values, the source holds several entries; their conditions need not be identical. Identical values can stand only once. Counter-ions that a name gives are not always drawn.

How the values were obtained:
[1] = system: neuro-2a (mouse neuroblastoma cells); experiment: Action on neuro-2a: proportion of cells containing outgrown neurites; format: cell-based; details: mean ± S.D.
How it was run: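 Read-out is the percentage of neurite-bearing cells (neurite ≥2× long cell diameter), counted microscopically over more than 200 cells per well. Before fixation and staining, neuro-2a cells (1,000/well, DMEM + 10% FCS) were cultured for one day at 37 °C; up to six compound concentrations, three runs each.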

mice = experiment: Acute toxicity on mice; format: in vivo; details: 24 hours after administration
Protocol: (§1) The acute toxicity of the compounds of the invention was examined by the following method.
(§2) Male ddy-strain 5-week old mice, 4-6- per group, were used as experimental animals. Each of the compounds was intraperitoneally (i.p.), and the toxicity of the compound was assessed 24 hours after the administration.

[2] = system: NS-20Y (mouse neuroblastoma cells); experiment: Activity on NS-20Y cells: appearance of neurites; format: cell-based
How it was run: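 Mouse neuroblastoma NS-20Y cells were grown in polyornithine-coated dishes in DMEM with 10 % FCS, 100 units/ml penicillin G sodium and 100 micrograms/ml streptomycin sulfate, at 37° C under 5 % carbon dioxide, and exposed to compound. Cells were fixed with 4 % glutaraldehyde, stained with 0.05 % methylene blue, and the fraction bearing neurites at least twice the cell's long diameter was counted microscopically.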

Acute toxicity on mice = format: in vivo; details: mouse, in vivo, ip, 24 hours after administration; read-out: Estimated LD50
Protocol: as §1, §2

| SMILES | Estimated LD50 (mice) | Number of cells having neurites with a length at least two times the diameter of each cell/total number of cells ([1]; 0.03 mM) [%] | Number of cells having neurites with a length at least two times the diameter of each cell/total number of cells ([1]; 0.1 mM) | Number of cells having neurites with a length at least two times the diameter of each cell/total number of cells ([1]; 1 mM) [%] | Number of cells in which neurites appeared/total number of cells ([2]; 48 hours, 0.1 mM) | Number of cells having neurites with a length at least two times the diameter of each cell/total number of cells ([1]; 0.3 mM) [%] | LD50 at 24 h (Acute toxicity on mice) [mg/kg] | Number of cells in which neurites appeared/total number of cells ([2]; 24 hours, 0.1 mM) | further results |
| --- | --- | --- | --- | --- | --- | --- | --- | --- | --- |
| CN(C(=O)c1ccccc1)c1ccnc(N2CCC(c3ccccc3)CC2)n1 [Compound 170, 4-(N-methylbenzamino)-2-(4-phenylpiperidino)pyrimidine hydrochloride] | > 1000 mg/kg, i.p. |  |  |  |  |  |  |  | Number of cells having neurites with a length at least two times the diameter of each cell/total number of cells ([1]; 0.1 mM, hydrochloride): 33.5 ± 2.4%; Number of cells having neurites with a length at least two times the diameter of each cell/total number of cells ([1]; 0.3 mM, hydrochloride): 31.0 ± 4.6% |
| CN(C(=O)c1ccc(Cl)cc1Cl)c1ccnc(N2CCC(c3ccccc3)CC2)n1.Cc1ccc(S(=O)(=O)O)cc1 [Compound 171-11] | > 1000 mg/kg, i.p. | 5.9 ± 0.9 | 36.8 ± 7.1% and 22.1 ± 2.3% | 31.7 ± 5.9 | 2/50 |  |  |  | Number of cells in which neurites appeared/total number of cells ([2]; 24 hours, 0.3 mM): 5/50 |
| CN(C(=O)c1ccccc1)c1ccnc(N2CCC(c3ccccc3)CC2)n1 [Compound 169] | > 1000 mg/kg, i.p. |  | 34.1 ± 5.7% |  |  | 16.6 ± 5.2 |  |  |  |
| CCCCN(CCCC)c1nccc(N(C)C(=O)c2ccccc2)n1 [Compound 112] |  | 4.8 ± 0.1 | 18.6 ± 5.2% | 7.6 ± 4.9 |  | 2.6 ± 0.6 | > 1000 |  | Number of cells in which neurites appeared/total number of cells ([2]; 24 hours, 0.025 mM): 4/51; Number of cells in which neurites appeared/total number of cells ([2]; 48 hours, 0.01 mM): 4/49; Number of cells in which neurites appeared/total number of cells ([2]; 48 hours, 0.025 mM): 9/50 |
| COc1cc(C(=O)N(C)c2ccnc(N3CCC(c4ccccc4)CC3)n2)cc(OC)c1OC [Compound 280] |  | 4.5 ± 1.2 | 17.2 ± 1.3% | 17.4 ± 2.6 | 8/53 | 13.4 ± 3.5 | 500 to 1000 |  | Number of cells in which neurites appeared/total number of cells ([2]; 24 hours, 0.2 mM): 3/50 |
| CN(C(=O)C=Cc1ccccc1)c1ccnc(N2CCC(c3ccccc3)CC2)n1 [Compound 170-2] |  |  | 14.7 ± 1.1% | 13.9 ± 3.0 | 2/50 | 5.6 ± 2.1 | 500 to 1000 | 3/50 |  |
| CC(C)C(=O)N(C)c1ccnc(N2CCC(c3ccccc3)CC2)n1 [Compound 216] |  | 6.3 ± 2.4 | 26.6 ± 5.6% |  |  |  | > 1000 |  | Number of cells having neurites with a length at least two times the diameter of each cell/total number of cells ([1]; 0.01 mM): 3.7 ± 0.4%; Number of cells in which neurites appeared/total number of cells ([2]; 24 hours, 0.025 mM): 3/49; Number of cells in which neurites appeared/total number of cells ([2]; 48 hours, 0.025 mM): 24/50; Number of cells in which neurites appeared/total number of cells ([2]; 48 hours, 0.05 mM): 20/50 |
| CC(=O)N(C)c1ccnc(N2CCCCC2)n1 [Compound 128] |  |  |  | 19.8 ± 2.8 |  | 9.9 ± 0.6 | > 1000 |  | Number of cells having neurites with a length at least two times the diameter of each cell/total number of cells ([1]; 0.5 mM): 9.1 ± 0.7%; Number of cells having neurites with a length at least two times the diameter of each cell/total number of cells ([1]; 2 mM): 14.3 ± 2.4%; Number of cells in which neurites appeared/total number of cells ([2]; 24 hours, 0.3 mM): 4/49; Number of cells in which neurites appeared/total number of cells ([2]; 24 hours, 1.0 mM): 23/55; Number of cells in which neurites appeared/total number of cells ([2]; 48 hours, 0.3 mM): 31/50; Number of cells in which neurites appeared/total number of cells ([2]; 48 hours, 0.5 mM): 21/50 |
| COCC(=O)N(C)c1ccnc(N2CCC(c3ccccc3)CC2)n1.Cc1ccc(S(=O)(=O)O)cc1 [Compound 154-2] | 500-1000 mg/kg, i.p. | 3.9 ± 0.6 | 8.9 ± 2.4% |  |  |  |  |  |  |
| COC(=O)c1cnc(NC(C)C)nc1C.O=C(O)/C=C\C(=O)O [Compound 804, 2-isopropylamino-4-methyl-5-methoxycarbonylpyrimidine maleate] |  |  |  | 26.1 ± 6.8 |  | 9.4 ± 1.3 | 500 to 1000 |  | Number of cells having neurites with a length at least two times the diameter of each cell/total number of cells ([1]; 0.5 mM): 13.0 ± 2.1%; Number of cells having neurites with a length at least two times the diameter of each cell/total number of cells ([1]; 2 mM): 18.8 ± 3.1%; Number of cells in which neurites appeared/total number of cells ([2]; 24 hours, 0.25 mM): 8/55; Number of cells in which neurites appeared/total number of cells ([2]; 24 hours, 0.5 mM): 7/50; Number of cells in which neurites appeared/total number of cells ([2]; 48 hours, 0.25 mM): 8/50; Number of cells in which neurites appeared/total number of cells ([2]; 48 hours, 0.5 mM): 25/51 |
| CN(C(=O)c1ccco1)c1nccc(N2CCC(c3ccccc3)CC2)n1 [Compound 684] |  | 5.8 ± 2.0 | 16.4 ± 2.8% |  |  |  | 500 to 1000 | 2.50 | Number of cells having neurites with a length at least two times the diameter of each cell/total number of cells ([1]; 0.01 mM): 3.8 ± 0.5%; Number of cells in which neurites appeared/total number of cells ([2]; 48 hours, 0.05 mM): 2/50 |
| CN(C(=O)c1ccccc1)c1ccnc(N2CCN(c3ccccc3)CC2)n1 [Compound 360] |  | 6.5 ± 0.7 | 10.0 ± 0.7% |  | 4/50 |  | > 1000 | 18/50 | Number of cells in which neurites appeared/total number of cells ([2]; 24 hours, 0.02 mM): 8/50 |
| CC(=O)N(C)c1ccnc(N2CCC(c3ccccc3)CC2)n1 [Compound 208] |  |  |  | 10.6 ± 1.5 | 28/50 |  | > 1000 | 27/53 | Number of cells having neurites with a length at least two times the diameter of each cell/total number of cells ([1]; 0.5 mM): 7.2 ± 2.3%; Number of cells having neurites with a length at least two times the diameter of each cell/total number of cells ([1]; 2 mM): 11.1 ± 1.2%; Number of cells having neurites with a length at least two times the diameter of each cell/total number of cells ([1]; 3 mM): 8.0 ± 4.0%; Number of cells in which neurites appeared/total number of cells ([2]; 24 hours, 0.25 mM): 17/51 |
